Measured values as given in patent US20100111965A1, “COMBINATION THERAPY” (FUSION ANTIBODIES LIMITED, priority 2006, published 2010).
“And” between values parts separate entries of the source, which are not always exact repeats. Identical values can stand only once.

How the values were obtained:
[1] = test system: MDA-MB231 breast carcinoma cell line; test: RT-PCR of AREG mRNA in MDA-MB231 cells after chemotherapy; assay type: cell-based, human; conditions: IC50 dose, 48 hours
Experimental: (§1) FIG. 6 illustrates AREG upregulation following chemotherapeutic challenge in A) HT29, B) HCT116 and C) MDA-MB231 cells. Cells were treated with/without chemotherapy for 48 hours. RT-PCR was performed with 1 μg of total RNA using primer pairs specific for the human AREG gene or GAPDH. The PCR products were separated on 1.5% agarose gel electrophoresis and visualized by ethidium bromide staining.
For Example 2, Total RNA was isolated from cells following the RNA STAT-60 manufacturer's protocol (Biogenesis, Poole, U.K.). RT-PCR was performed with 1 μg of total cell RNA using a Promega ImProm-II™ Reverse Transcription System (Promega, Southhampton, UK). PCR was performed using primer pairs specific for human AREG (Forward 5′-[…]-3′(SEQ ID No:19), Reverse 5′-[…]-3′ (SEQ ID No:20)), human HB-EGF (Forward 5′-[…]-3′(SEQ ID No:21), Reverse 5′-[…]-3′(SEQ ID No:22)), human GAPDH as a control (Forward 5′[…]-3′(SEQ ID No:23), Reverse 5′ […]-3′(SEQ ID NO:24)) and human Beta-actin as a control (Forward 5′-[…]-3′(SEQ ID No:25), Reverse 5′-[…]-3′(SEQ ID No:26)).
The PCR products were separated on 1.5% agarose gel and visualized by ethidium bromide staining.

H460 lung cancer cells = test: RT-PCR of AREG RNA in H460 lung cancer cells after chemotherapy; assay type: cell-based; conditions: 48 hour treatment
Experimental: FIG. 5 illustrates analysis of AREG and beta actin RNA expression in H460 lung cancer cells with/without either a 48 hour CPT11 treatment or 5-Fu treatment. RNA levels were analyzed following 35 cycle of PCR to determine relative differences in expression between treated and untreated samples.
(§2) Cells in a log phase of growth were seeded into T75 flask at ˜20% confluence and incubated overnight to allow adherence to the plate. […] Chemotherapy was substituted with saline in control flasks. After different time exposure to chemotherapy the cells were harvested, washed 3 times in PBS and total RNA was isolated using the RNA TAT-60 reagent according to the manufacturer instructions.
(§3) Reverse transcription was performed with 2.5 μg of RNA using a High Capacity cDNA Archive kit (Applied Biosystem) according to the instruction of the manufacturer.
(§4) Semi quantitative RT-PCR was performed using a PTC 225 Gradient Cycler (MJ Research Incorporated. The PCR mixture, in a final volume of 25 μL, contains 12.5 μL of 2× Biomix (Bioline, UK), 2 μL of primers (10 μmol/L), 1 μL of cDNA and 9.5 μL of dH2O). PCR conditions were initial denaturation step of 95 C for 10 minutes, followed by 35 cycles of 95° C. for 30 sec for denaturation; as annealing step 55° C. for 30 sec; and extension at 72° C. for 90 sec, with a final extension of 72° C. for 10 minutes. […]

RKO +/+ = test: Semi quantitative RT-PCR of AREG RNA in RKO cells after chemotherapy; assay type: cell-based, human; conditions: 48 h after treatment, 7.5 μM
Experimental: FIG. 1A illustrates analysis of AREG and beta actin RNA expression in RKO +/+ with/without either a 48 hour CPT11 treatment or 5-Fu treatment. RNA levels were analyzed following 35 cycle of PCR to determine relative differences in expression between treated and untreated samples;
as §2, §3, §4

[2] = test system: HCT116+/+ cells (In Vivo); test: Microarray analysis of EGF-family mRNA in HCT116 xenograft tumours after chemotherapy; parameters: species or system human; conditions: for EGF (Epidermal Growth factor) fold change, microarray: drug treated against untreated control
Experimental: 6-8 week old female SCID mice were implanted with 2×10^6 HCT116+/+ human colorectal adenocarcinoma cells into each flank. HCT116 cells in a log phase of growth were harvested, washed in PBS and resuspended in HBSS. They were mixed with equal volumes of matrigel to give a final concentration of 5×10^6 cells/ml. Mice were randomly separated into treatment groups on day 5 after implantation and treated with different doses of chemotherapy. […] All drugs were administered through a bolus injection. Animals were sacrificed at various time points and tumours were removed for analysis
Approximately 10 μg total RNA was isolated from tumour cells and was used as the starting material for preparation of probes. The microarray analysis was carried using an Affymetrix U133 plus 2.0 GeneChip®. Probes were prepared as per the manufacturers recommendations.
After RNA extraction, samples were reverse transcribed into cDNA which was then purified on a column prior to labelling. The probes were then amplified and labelled using Oligo(dT)-primed in vitro transcription generating high-yield, biotinylated targets from the 3′-end. […] For the next stage the fragmented cRNA was hybridised to the array for 16 hours at 45° C. Following this the array was washed and stained with streptavidin-phycoerythrin (SAPE) using a fluidics station and scanned using a GeneChip® Scanner 3000. Stained images were then analysed.
Initially the data was scaled using the Affymetrix® GCOS (Genechip® Operating System) software, to assess quality metrics. The data was then normalized against a control sample. After normalisation the data was filtered removing all genes where the noise level obscured signal and were fold change was […] 2-fold. Finally a confidence filter where the t-test p-value were used to filter the genes to derive lists of statistically robust data.
Each treatment type and timepoint was carried out in triplicate and statistics and filtering were applied to the whole data set from each condition.
A xenograft study was set up to examine the genetic response to 2 different chemotherapeutic drugs 24 and 48 hours after treatment. Each mouse was implanted with equal volumes of HCT116 cells and each condition was performed in triplicate.
RNA isolated from tumours in each of the 12 mice was subjected to microarray analysis to measure mRNA expression levels. Fold change values for drug treated against untreated control is presented.

HCT116 = test: RT-PCR of AREG RNA in HCT116 cells after chemotherapy; assay type: cell-based, human; conditions: 48 h after treatment, 7.5 μM
Experimental: FIG. 1B illustrates analysis of AREG and beta actin RNA expression in HCT116 +/+ with/without a 48 hour CPT11 treatment. RNA levels were analyzed following 35 cycles of PCR to determine relative differences in expression between treated and untreated samples;
as §1
as §2, with “instructions. […]” for “instructions.”
Semi quantitative RT-PCR was performed using a PTC 225 Gradient Cycler (MJ Research Incorporated. The PCR mixture, in a final volume of 25 μL, contains 12.5 μL of 2× Biomix (Bioline, UK), 2 μL of primers (10 μmol/L), 1 μL of cDNA and 9.5 μL of dH2O). […]

[3] = HCT116+/+ xenograft, 70 mg/kg bolus, 24 h, vs untreated control
[4] = HCT116+/+ xenograft, 70 mg/kg bolus, 24 h, vs untreated control, 70 mg/kg
[5] = HCT116 xenograft, treated by 5-FU, time not stated

SMILES: O=c1[nH]cc(F)c(=O)[nH]1 [5-FU, 5-Fluorouracil]
- AREG mRNA expression (RT-PCR) [1]: up-regulation
- AREG RNA expression (RT-PCR, 35 cycles) (H460 lung cancer cells): enhanced expression of AREG
- AREG RNA expression (RT-PCR) (RKO +/+): upregulation
- EGF (Epidermal Growth factor) fold change, microarray ([2]; HCT116+/+ xenograft, 70 mg/kg bolus, 24 h): −2.4 fold
- NRG3 fold change, microarray [2, 3]: −2.1 fold
- NRG4 fold change, microarray [2, 3]: −1.1 fold
- HB-EGF (Heparin-Binding EGF-like growth factor) fold change, microarray [2, 4]: 1.6 fold and 3.1 fold
- TGF alpha (Transforming Growth factor alpha) fold change, microarray [2, 4]: 1.3 fold and 1.8 fold
- EGF (Epidermal Growth factor) fold change, microarray ([2]; HCT116+/+ xenograft, 70 mg/kg bolus, 48 h): −3.8 fold
- NRG4 fold change, microarray ([2]; HCT116+/+ xenograft, 70 mg/kg bolus, 48 h, vs untreated control): −1.8 fold
- fold change values for AREG mRNA expression, treated against untreated controls ([2]; HCT116 xenograft, 70 mg/kg, after 48 hours): 2.1 fold
- HB-EGF regulation in micro-array analysis [2, 5]: up-regulation
- TGF regulation in micro-array analysis [2, 5]: up-regulation
- AREG RNA expression (RT-PCR) (HCT116): upregulation
